Among the data in patent publication US7842808B2, “Anti-migraine spirocycles” (Bristol-Myers Squibb Company, priority 2002, dated 2010) are IC50 values, retold here.

By pIC50 is commonly meant the IC50 on a negative log10 scale, so that one unit is a factor of ten.

pIC50: −log10 of the molar value. Like-named read-outs stand apart in the source and are kept apart here. Where only a bound is given, the exact number is not on record here.

For assay [1], the target named is T1, human CGRP receptor (SK-N-MC cells) (Homo sapiens, UniProt O60894+Q16602).
T1 construct: SK-N-MC cells that endogenously express the human CGRP receptor; endogenous in cells; host or cells: SK-N-MC cells
As to the kind of experiment: Cyclic AMP Assay, functional antagonism of CGRP-induced cyclic AMP formation. In kind it is cell-based. On the procedure:
Functional Antagonism. Antagonism of the compounds of invention was determined by measuring the formation of cyclic AMP (adenosine 3′5′-cyclic monophosphate) in SK-N-MC cells that endogenously express the human CGRP receptor. […] For cyclic AMP measurements SK-N-MC cells were incubated with 0.3 nM CGRP alone or in the presence of various concentrations of the compounds of invention for 30 min at room temperature. […] Cyclic AMP was extracted using the lysis reagent and its concentration was determined by radioimmunoassay using RPA559 cAMP SPA Direct Screening Assay Kit (Amersham Pharmacia Biotech). IC50 values were calculated using Excel fit.

The target of assay [2] is T2, CGRP receptor (SK-N-MC cell membranes) (Homo sapiens, UniProt O60894+Q16602).
T2 construct: endogenous in cells; host or cells: SK-N-MC cells (membrane homogenate)
As to the kind of experiment: CGRP Binding Assay ([125I]-CGRP radioligand binding, SK-N-MC homogenate).

Where [3] appears, read: SK-N-MC cells, 0.3 nM CGRP, read-out: cAMP Function IC50.
Setting [4] is: displacement of [125I]-CGRP, SK-N-MC homogenate, read-out: CGRP binding IC50.

T2 sequence (Q16602 23-461): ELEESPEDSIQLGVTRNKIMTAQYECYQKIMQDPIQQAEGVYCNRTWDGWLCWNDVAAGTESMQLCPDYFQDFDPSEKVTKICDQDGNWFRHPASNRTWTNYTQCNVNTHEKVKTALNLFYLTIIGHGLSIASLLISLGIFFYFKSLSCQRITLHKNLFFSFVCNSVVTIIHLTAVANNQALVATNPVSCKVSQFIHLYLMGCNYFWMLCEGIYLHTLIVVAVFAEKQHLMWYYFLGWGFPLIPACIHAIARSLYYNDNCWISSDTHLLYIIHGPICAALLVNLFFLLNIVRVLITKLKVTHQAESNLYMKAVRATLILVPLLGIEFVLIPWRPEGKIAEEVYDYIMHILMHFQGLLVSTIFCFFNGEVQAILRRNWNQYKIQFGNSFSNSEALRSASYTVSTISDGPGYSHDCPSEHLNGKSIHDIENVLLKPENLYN
T2 sequence (O60894 27-148): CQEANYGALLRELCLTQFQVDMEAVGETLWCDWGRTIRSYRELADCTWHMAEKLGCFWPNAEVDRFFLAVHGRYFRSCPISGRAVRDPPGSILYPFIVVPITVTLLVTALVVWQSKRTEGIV
T1 sequence (Q16602 23-461): as the sequence (Q16602 23-461) above
T1 sequence (O60894 27-148): as the sequence (O60894 27-148) above

In the case of `CN(C)C(=O)C(CC(=O)N1CCC(N2Cc3ccccc3NC2=O)CC1)Cc1ccc2[nH]ncc2c1` (racemic) [Example 82, (±)-2-(1H-Indazol-5-ylmethyl)-N,N-dimethyl-4-oxo-4-[4-(2-oxo-1,4-dihydro-2H-quinazolin-3-yl)-piperidin-1-yl]-butyramide], the negative logarithm of the IC50 (pIC50) in assay [1] (setting [3]) is 6.00 to 7.00; in assay [2] (setting [4]) it was 7.00 to 8.00. The matching figures for `Cc1cc(CC(CC(=O)N2CCC3(CC2)OC(=O)Nc2ccccc23)C(=O)N2CCCCC2)cc2cn[nH]c12` (racemic) [Example 77, (±)-2-(7-Methyl-1H-indazol-5-ylmethyl)-1-(piperidin-1-yl)-4-[1′,2′-dihydro-2′-oxospiro-[4H-3′,1-benzoxazine-4,4′-piperidinyl]-butane-1,4-dione]: 7.00 to 8.00 and 7.00 to 8.00.

As for `CCC(C)CN1CCN(C(=O)C(Cc2ccc3[nH]ncc3c2)NC(=O)N2CCC(N3Cc4ccccc4NC3=O)CC2)CC1` (centres unmarked) [Example 40a, 4-(2-Oxo-1,4-dihydro-2H-quinazolin-3-yl)-piperidine-1-carboxylic acid{1-(1H-indazol-5-ylmethyl)-2-[4-(2-methyl-butyl)-piperazin-1-yl]-2-oxo-ethyl}-amide], the pIC50 in assay [1] (setting [3]) and in assay [2] (setting [4]) was over 8.00 in each case.

Regarding `CC(C)(C)OC(=O)n1ncc2cc(CC(CC(=O)N3CCC(N4Cc5ccccc5NC4=O)CC3)C(=O)N3CCC(N4CCCCC4)CC3)ccc21` (racemic) [Example 83, (±)-5-{2-([1,4′]Bipiperidinyl-1′-carbonyl)-4-oxo-4-[4-(2-oxo-1,4-dihydro-2H-quinazolin-3-yl)-piperidin-1-yl]-butyl}-indazole-1-carboxylic acid tert-butyl ester], the pIC50 in assay [1] (setting [3]) was 6.00 to 7.00; in assay [2] (setting [4]) it was 7.00 to 8.00. The matching figures for `Cc1cc(CC(NC(=O)N2CCC(N3Cc4ccccc4NC3=O)CC2)C(=O)N2CCN(c3ccccn3)CC2)cc2cn[nH]c12` (racemic) [Example 22, (±)-4-(2-Oxo-1,4-dihydro-2H-quinazolin-3-yl)-piperidine-1-carboxylic acid[1-(7-methyl-1H-indazol-5-ylmethyl)-2-oxo-2-(4-pyridin-2-yl-piperazin-1-yl)-ethyl]-amide]: over 8.00 and over 8.00. In the case of `O=C(NC(Cc1ccc2[nH]ccc2c1)C(=O)N1CCC2(CC1)OCCO2)N1CCC(n2c(=O)[nH]c3ccccc32)CC1` (racemic) [Example 8, (±)-4-(2-Oxo-2,3-dihydro-benzoimidazol-1-yl)-piperidine-1-carboxylic acid[2-(1,4-dioxa-8-aza-spiro[4.5]dec-8-yl)-1-(1H-indol-5-ylmethyl)-2-oxo-ethyl]-amide], the pIC50 in assay [1] and in assay [2] was 6.00 to 7.00 each time. `Cc1cc(CC(CC(=O)N2CCC(N3Cc4ccccc4NC3=O)CC2)C(=O)N2CCCCC2)cc2cn[nH]c12` (racemic) [Example 78, (±)-2-(7-Methyl-1H-indazol-5-ylmethyl)-4-[4-(2-oxo-1,4-dihydro-2H-quinazolin-3-yl)-piperidin-1-yl]-1-piperidin-1-yl-butane-1,4-dione]: the negative logarithm of the IC50 (pIC50) in assay [1] (setting [3]) and in assay [2] (setting [4]) was over 8.00 each time.

With `O=C(CC(Cc1ccc2[nH]ncc2c1)C(=O)N1CCC2(CC1)OCCO2)N1CCC(N2Cc3ccccc3NC2=O)CC1` (racemic) [Example 81, (±)-1-(1,4-Dioxa-8-aza-spiro[4.5]dec-8-yl)-2-(1H-indazol-5-ylmethyl)-4-[4-(2-oxo-1,4-dihydro-2H-quinazolin-3-yl)-piperidin-1-yl]-butane-1,4-dione], the pIC50 in assay [1] was 6.00 to 7.00; in assay [2] (setting [4]) it was 7.00 to 8.00. `COc1ccc(C(=O)N[C@@H](CC(=O)N2CCC(N3Cc4ccccc4NC3=O)CC2)C(=O)N2CCC(N3CCCCC3)CC2)cc1` [Example 99, (L)-N-{1-([1,4′]Bipiperidinyl-1′-carbonyl)-3-oxo-3-[4-(2-oxo-1,4-dihydro-2H-quinazolin-3-yl)-piperidin-1-yl]-propyl}-4-methoxy-benzamide]: the negative-log IC50 (pIC50) in assay [1] (setting [3]) and in assay [2] (setting [4]) was under 6.00 throughout.

For `CC(C)CN1CCN(C(=O)C(Cc2ccc3[nH]ccc3c2)NC(=O)N2CCC(n3c(=O)[nH]c4ccccc43)CC2)CC1` (racemic) [Example 7, (±)-4-(2-Oxo-2,3-dihydro-benzoimidazol-1-yl)-piperidine-1-carboxylic acid[1-(1H-indol-5-ylmethyl)-2-(4-isobutyl-piperazin-1-yl)-2-oxo-ethyl]-amide], the negative-log IC50 (pIC50) in assay [1] (setting [3]) and in assay [2] (setting [4]) was 6.00 to 7.00 throughout. For `O=C(N[C@H](Cc1csc2ccccc12)C(=O)N1CCC(N2CCCCC2)CC1)N1CCC2(CC1)Cc1ccccc1NC2=O` [Example 61, (R)-1-Oxo-3,4-benzo-2,9-diaza-spiro[5.5]undec-3-ene-9-carboxylic acid (1-benzo[b]thiophen-3-ylmethyl-2-[1,4′]bipiperidinyl-1′-yl-2-oxo-ethyl)-amide], the pIC50 in assay [1] (setting [3]) and in assay [2] (setting [4]) was 6.00 to 7.00 throughout. Turning to `Cc1cc(CC(NC(=O)N2CCC(N3Cc4ccccc4NC3=O)CC2)C(=O)O)cc2cn[nH]c12` (racemic) [Example 15, (±)-3-(7-Methyl-1H-indazol-5-yl)-2-{[4-(2-oxo-1,4-dihydro-2H-quinazolin-3-yl)-piperidine-1-carbonyl]-amino}-propionic acid], the pIC50 in assay [1] (setting [3]) and in assay [2] (setting [4]) was 6.00 to 7.00 throughout. With `O=C(N[C@@H](CC(=O)N1CCC(N2Cc3ccccc3NC2=O)CC1)C(=O)N1CCC(N2CCCCC2)CC1)c1ccc2c(c1)OCO2` [Example 114], the negative logarithm of the IC50 (pIC50) in assay [2] (setting [4]) was 6.00 to 7.00. Turning to `O=C(Nc1ccc(Cl)cc1Cl)N[C@@H](CC(=O)N1CCC(N2Cc3ccccc3NC2=O)CC1)C(=O)N1CCC(N2CCCCC2)CC1` [Example 161], the negative logarithm of the IC50 (pIC50) in assay [2] (setting [4]) was 7.00 to 8.00. On the same count and under the same terms, under `O=C(NC(CN1CCC(O)CC1)C(=O)N1CCC(N2CCCCC2)CC1)N1CCC(N2Cc3ccccc3NC2=O)CC1` (racemic) [Example 53, (±)-4-(2-Oxo-1,4-dihydro-2H-quinazolin-3-yl)-piperidine-1-carboxylic acid[2-[1,4′]bipiperidinyl-1′-yl-1-(4-hydroxy-piperidin-1-ylmethyl)-2-oxo-ethyl]-amide] stands under 6.00. The same measure, in the same setting: the result for `Cc1cc(CC(NC(=O)N2CCC3(CC2)OC(=O)Nc2ccccc23)C(=O)NC2C3CC4CC(C3)CC2C4)cc2cn[nH]c12` (racemic) [Example 28, (±)-[1-(2-adamantyl-carbamoyl)-2-(7-methyl-1H-indazol-5-yl)-ethyl]-1′,2′-dihydro-2′-oxospiro-[4H-3′,1-benzoxazine-4,4′-piperidine]-1-carboxamide] reads 6.00 to 7.00; that for `CN(C)/C=C/CN1CCN(C(=O)C(Cc2ccc3[nH]ncc3c2)NC(=O)N2CCC(N3Cc4ccccc4NC3=O)CC2)CC1` (centres unmarked) [Example 40h], under 6.00; that for `O=C(N[C@H](Cc1ccc2nn[nH]c2c1)C(=O)N1CCC(N2CCCCC2)CC1)N1CCC(N2Cc3ccccc3NC2=O)CC1` [Example 49, (R)-4-(2-Oxo-1,4-dihydro-2H-quinazolin-3-yl)-piperidine-1-carboxylic acid[1-(1H-benzotriazol-5-ylmethyl)-2-[1,4′]bipiperidinyl-1′-yl-2-oxo-ethyl]-amide], over 8.00. The same measure, in the same setting: under `O=C(N[C@@H](CC(=O)N1CCC(N2Cc3ccccc3NC2=O)CC1)C(=O)N1CCC(N2CCCCC2)CC1)c1sc2ccccc2c1Cl` [Example 125] stands 6.00 to 7.00. Regarding `CCOc1ccccc1NC(=O)N[C@@H](CC(=O)N1CCC(N2Cc3ccccc3NC2=O)CC1)C(=O)N1CCC(N2CCCCC2)CC1` [Example 175], the pIC50 in assay [2] (setting [4]) was 6.00 to 7.00.

On to `Cc1cc(CC(NC(=O)N2CCC3(CC2)CC(=O)Nc2ccccc23)C(=O)N2CCCCC2)cc2cn[nH]c12` (racemic) [Example 32, (±)-1-(7-Methyl-1H-indazol-5-ylmethyl)-2-[1-piperidinyl]-2-oxoethyl]3′,4′-dihydro-2′-oxospiro-[piperidine-4,4′-(1H)-quinoline]-1-carboxamide], for which the pIC50 in assay [2] (setting [4]) was 6.00 to 7.00.

On to `O=C(Nc1cc(Cl)nc(Cl)c1)N[C@@H](CC(=O)N1CCC(N2Cc3ccccc3NC2=O)CC1)C(=O)N1CCC(N2CCCCC2)CC1` [Example 164], for which the negative logarithm of the IC50 (pIC50) in assay [2] (setting [4]) is 6.00 to 7.00. The same measure, in the same setting: under `CC(NC(=O)N[C@@H](CC(=O)N1CCC(N2Cc3ccccc3NC2=O)CC1)C(=O)N1CCC(N2CCCCC2)CC1)c1cccc2ccccc12` (some centres unmarked) [Example 199] stands 7.00 to 8.00; under `Cc1c(Cl)cccc1NC(=O)N[C@@H](CC(=O)N1CCC(N2Cc3ccccc3NC2=O)CC1)C(=O)N1CCC(N2CCCCC2)CC1` [Example 192], 6.00 to 7.00. Consider `CCCCC(CC)CN1CCN(C(=O)C(Cc2ccc3[nH]ncc3c2)NC(=O)N2CCC(N3Cc4ccccc4NC3=O)CC2)CC1` (centres unmarked) [Example 40f], for which, in assay [2] (setting [4]), the negative-log IC50 (pIC50) was under 6.00. The same measure, in the same setting: the result for `Cc1cc(CC(NC(=O)N2CCC3(CC2)CC(=O)Nc2ccccc23)C(=O)N(C)C)cc2cn[nH]c12` (racemic) [Example 33, (±)-[1-Dimethylcarbmoyl-2-(7-methyl-1H-indazol-5-yl)-ethy]1-3′,4′-dihydro-2′-oxospiro-[piperidine-4,4′-(1H)-quinoline]-1-carboxamide] reads 6.00 to 7.00; that for `O=C(NC(Cc1ccc2[nH]ncc2c1)C(=O)N1CCN(Cc2ccc[nH]2)CC1)N1CCC(N2Cc3ccccc3NC2=O)CC1` (centres unmarked) [Example 40g], under 6.00. For `O=C(N[C@@H](CC(=O)N1CCC(N2Cc3ccccc3NC2=O)CC1)C(=O)N1CCC(N2CCCCC2)CC1)c1cccc(Cl)c1Cl` [Example 123], in assay [2] (setting [4]), the pIC50 was 7.00 to 8.00. The same measure, in the same setting: the result for `O=C(Nc1ccc(-c2ccccc2)cc1)N[C@@H](CC(=O)N1CCC(N2Cc3ccccc3NC2=O)CC1)C(=O)N1CCC(N2CCCCC2)CC1` [Example 144] reads 6.00 to 7.00.
